The target in the experiment is Protein Wnt-3a (Human, UniProt P56704). Nature of the experiment: WNT Pathway Reporter Gene Assay. How it is done: Materials and Methods: NIH3T3 mouse fibroblast cells (American Type Culture Collection, Manassas, Va.) were transfected with a plasmid containing a luciferase gene driven by 5 copies of TCF elements. Stale cells selected with 1 μg/mL of Zeocin (Gibco/Invitrogen, Carlsbad, Calif.) are cultured in Dulbecco's modified Eagle's medium (Invitrogen, Carlsbad, Calif.) supplemented with 10% FBS (Invitrogen), 50 unit/mL penicillin and 50 μg/mL of streptomycin (Invitrogen) at 37° C. with 5% CO2 in air atmosphere. […] After 16 hours, the firefly luciferase activities are measured with the Steady-Glo Luciferase Assay System (Promega). The cells were treated with different concentrations of compounds of this invention during the co-culture. […] To normalize for cell quantity and viability, CellTiter Glo assay is next performed in a duplicate plate.
Sequence of Protein Wnt-3a (P56704 whole entry): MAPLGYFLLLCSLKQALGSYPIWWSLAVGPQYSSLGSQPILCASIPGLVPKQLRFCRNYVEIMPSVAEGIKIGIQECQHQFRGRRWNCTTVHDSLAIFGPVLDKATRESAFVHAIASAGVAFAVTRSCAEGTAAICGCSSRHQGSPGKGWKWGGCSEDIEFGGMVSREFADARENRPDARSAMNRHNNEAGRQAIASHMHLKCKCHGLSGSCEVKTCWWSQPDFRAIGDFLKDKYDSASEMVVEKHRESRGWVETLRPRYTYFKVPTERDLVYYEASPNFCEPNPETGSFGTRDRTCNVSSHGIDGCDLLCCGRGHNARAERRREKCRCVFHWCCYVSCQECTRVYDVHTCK
Background: In a reporter assay the amount or activity of a reporter protein is the signal.
The molecule `Cc1cc(-c2ccc(CNc3nccc4cc(-c5ccnc(C)c5)ncc34)cc2)ccn1` [US10285988, Compound 1] came in with an IC50 below 3 nM.

Consider `Cc1cc(-c2cc3ccnc(NCc4ccc(-c5ccnc(C)c5)c(C)c4)c3cn2)ccn1` [US10285988, Compound 2], for which the IC50 is below 3 nM.

Regarding `Cc1cc(-c2cc3ccnc(NCc4ccc(-c5ccnc(F)c5)c(F)c4)c3cn2)ccn1` [US10285988, Compound 28], the IC50 was below 3 nM.

Regarding `Cc1cc(-c2ccc(CNc3nccc4cc(-c5cnccn5)ncc34)cc2)ccn1` [US10285988, Compound 35], the IC50 was below 3 nM.

The molecule `Cc1cc(-c2ncc(CNc3nccc4cc(-c5cnccn5)ccc34)cc2C)ccn1` [US10285988, Compound 70] displayed an IC50 below 3 nM.

In general, IC50 refers to the concentration that gives 50% inhibition.

The record behind these values is BindingDB's records for patent US10285988 (Curegenix, 2019).
